Measurements: ChEMBL document CHEMBL4033668, “Inhibitors of cytochrome P450 (CYP) 1B1” (Eur J Med Chem, 2017)

Key:
Cytochrome P450 1A1 [1] = biological target: T1, Cytochrome P450 1A1 (Homo sapiens, UniProt P04798); assay: Competitive inhibition of […] CYP1A1 expressed in supersomes coexpressing NADPH-CYP reductase using 7-Ethoxyresorufin as substrate measured every 5 mins for 30 mins in presence of NADPH by fluorescence assay; assay type: ADME; settings: read-out: Ki(app)
T1 sequence (P04798 whole entry): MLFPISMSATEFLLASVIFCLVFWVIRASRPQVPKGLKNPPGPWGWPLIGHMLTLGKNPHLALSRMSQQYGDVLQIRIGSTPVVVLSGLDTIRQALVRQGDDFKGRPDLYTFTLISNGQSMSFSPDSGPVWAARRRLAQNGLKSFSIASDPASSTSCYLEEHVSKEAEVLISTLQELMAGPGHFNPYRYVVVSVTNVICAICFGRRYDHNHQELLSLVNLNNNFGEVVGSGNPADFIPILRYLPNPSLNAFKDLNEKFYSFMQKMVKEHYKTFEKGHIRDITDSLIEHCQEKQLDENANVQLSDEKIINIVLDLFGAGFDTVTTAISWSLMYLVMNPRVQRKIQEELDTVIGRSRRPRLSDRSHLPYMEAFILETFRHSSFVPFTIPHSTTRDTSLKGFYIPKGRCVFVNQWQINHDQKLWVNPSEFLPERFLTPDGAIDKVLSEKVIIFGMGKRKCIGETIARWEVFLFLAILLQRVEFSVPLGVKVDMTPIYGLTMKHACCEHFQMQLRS

Cytochrome P450 1B1 [2] = biological target: T2, Cytochrome P450 1B1 (Homo sapiens, UniProt Q16678); assay: Inhibition of recombinant CYP1B1 (unknown origin) expressed in supersomes coexpressing NADPH-CYP reductase using 7-ethoxyresorufin as substrate after 15 mins in presence of NADP+ by fluorescence spectrophotometric analysis
T2 sequence (Q16678 whole entry): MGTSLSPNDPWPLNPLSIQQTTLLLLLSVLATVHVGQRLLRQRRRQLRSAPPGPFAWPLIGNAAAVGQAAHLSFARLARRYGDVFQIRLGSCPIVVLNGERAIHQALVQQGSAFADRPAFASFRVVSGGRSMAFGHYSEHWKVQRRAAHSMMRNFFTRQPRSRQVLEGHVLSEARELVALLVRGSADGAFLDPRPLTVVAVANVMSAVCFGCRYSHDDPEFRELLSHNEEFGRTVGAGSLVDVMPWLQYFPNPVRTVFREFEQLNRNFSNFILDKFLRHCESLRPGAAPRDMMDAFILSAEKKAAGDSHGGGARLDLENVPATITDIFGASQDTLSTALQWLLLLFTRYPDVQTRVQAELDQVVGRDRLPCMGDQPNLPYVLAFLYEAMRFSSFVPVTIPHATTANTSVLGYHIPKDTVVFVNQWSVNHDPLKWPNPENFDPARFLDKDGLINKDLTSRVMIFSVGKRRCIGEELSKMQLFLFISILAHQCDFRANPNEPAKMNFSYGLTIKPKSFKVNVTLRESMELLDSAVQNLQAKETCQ

Cytochrome P450 1B1 [3] = biological target: T2, Cytochrome P450 1B1; assay: Inhibition of recombinant human CYP1B1 expressed in supersomes coexpressing NADPH-CYP reductase using 7-ethoxyresorufin as substrate after 15 mins in presence of NADP+ by Lineweaver-Burk plot analysis
Cytochrome P450 1B1 [4] = biological target: T2, Cytochrome P450 1B1; assay: Inhibition of CYP1B1 (unknown origin) expressed in Escherichia coli DH5alpha coexpressing human NADPH-P450 reductase using 7-Ethoxyresorufin as substrate up to 6 mins in presence of NADP+ by spectrofluorometric analysis
Cytochrome P450 1B1 [5] = biological target: T2, Cytochrome P450 1B1; assay: Competitive inhibition of CYP1B1 (unknown origin) expressed in yeast microsomes using (-)benzo[a]pyrene-7R-trans-7,8-dihyrodiol (B[a]P-7,8-diol) as substrate
Cytochrome P450 1A1 [6] = biological target: T1, Cytochrome P450 1A1; assay: Inhibition of CYP1A1 (unknown origin) expressed in Escherichia coli DH5alpha coexpressing human NADPH-P450 reductase using 7-Ethoxyresorufin as substrate up to 6 mins in presence of NADP+ by spectrofluorometric analysis; assay type: ADME
Cytochrome P450 1A2 [7] = biological target: T3, Cytochrome P450 1A2 (Homo sapiens, UniProt P05177); assay: Inhibition of CYP1A2 (unknown origin) expressed in Escherichia coli DH5alpha coexpressing human NADPH-P450 reductase using 7-Ethoxyresorufin as substrate up to 6 mins in presence of NADP+ by spectrofluorometric analysis; assay type: ADME
T3 sequence (P05177 whole entry): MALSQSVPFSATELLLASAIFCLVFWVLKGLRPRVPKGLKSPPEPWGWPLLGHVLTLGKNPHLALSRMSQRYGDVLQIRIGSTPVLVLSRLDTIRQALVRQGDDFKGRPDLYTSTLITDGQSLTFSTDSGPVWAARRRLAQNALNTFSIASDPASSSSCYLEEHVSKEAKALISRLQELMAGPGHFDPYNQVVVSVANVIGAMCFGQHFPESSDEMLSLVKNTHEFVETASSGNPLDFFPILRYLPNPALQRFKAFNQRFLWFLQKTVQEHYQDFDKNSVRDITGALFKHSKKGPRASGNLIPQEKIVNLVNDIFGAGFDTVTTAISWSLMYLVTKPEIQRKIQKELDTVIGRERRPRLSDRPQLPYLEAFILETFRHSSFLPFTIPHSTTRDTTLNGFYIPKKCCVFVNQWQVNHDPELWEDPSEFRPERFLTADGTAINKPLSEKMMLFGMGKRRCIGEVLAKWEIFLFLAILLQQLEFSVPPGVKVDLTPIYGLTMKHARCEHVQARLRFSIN

Cytochrome P450 1B1 [8] = biological target: T2, Cytochrome P450 1B1; assay: Inhibition of human CYP1B1 expressed in Escherichia coli DH5alpha coexpressing human NADPH-P450 reductase using 4-estradiol as substrate in presence of NADP+ by HPLC analysis
Cytochrome P450 1B1 [9] = biological target: T2, Cytochrome P450 1B1; assay: Inhibition of human CYP1B1 expressed in Escherichia coli DH5alpha coexpressing human NADPH P450 reductase using 7-ethoxyresorufin as substrate in presence of NADP+ by spectrofluorometeric analysis
Cytochrome P450 1B1 [10] = biological target: T2, Cytochrome P450 1B1; assay: Inhibition of human CYP1B1 expressed in Escherichia coli DH5alpha coexpressing human NADPH P450 reductase using 7-ethoxyresorufin as substrate in presence of NADPH by fluorimetric analysis
Cytochrome P450 1A1 [11] = biological target: T1, Cytochrome P450 1A1; assay: Inhibition of human CYP1A1 expressed in Escherichia coli DH5alpha coexpressing human NADPH P450 reductase using 7-ethoxyresorufin as substrate in presence of NADPH by fluorimetric analysis; assay type: ADME
Cytochrome P450 1A1 [12] = biological target: T1, Cytochrome P450 1A1; assay: Inhibition of recombinant human CYP1A1 expressed in supersomes using 7-ethoxyresorufin O-deethylation as substrate after 5 mins in presence of NADP+ by spectrofluorimetric analysis; assay type: ADME
Cytochrome P450 1A2 [13] = biological target: T3, Cytochrome P450 1A2; assay: Inhibition of recombinant human CYP1A2 expressed in supersomes using 7-ethoxyresorufin O-deethylation as substrate after 5 mins in presence of NADP+ by spectrofluorimetric analysis; assay type: ADME
Cytochrome P450 1A1 [14] = biological target: T1, Cytochrome P450 1A1; assay: Inhibition of recombinant human CYP1A1 expressed in supersomes coexpressing NADPH-CYP reductase using 7-ethoxyresorufin as substrate after 15 mins in presence of NADP+ by Lineweaver-Burk plot analysis; assay type: ADME
Cytochrome P450 1B1 [15] = biological target: T2, Cytochrome P450 1B1; assay: Inhibition of recombinant human CYP1B1 expressed in Escherichia coli coexpressing human NADPH-cytochrome P450 reductase using 7-ethoxyresorufin as substrate by fluorescence spectrophotometric analysis
Cytochrome P450 1A1 [16] = biological target: T1, Cytochrome P450 1A1; assay: Inhibition of recombinant CYP1A1 (unknown origin) expressed in Escherichia coli DH5alphaF'Iq coexpressing human NADPH-P450 reductase using E2-d4 as substrate after 10 mins in presence of NADP+; assay type: ADME
Cytochrome P450 1B1 [17] = biological target: T2, Cytochrome P450 1B1; assay: Inhibition of recombinant CYP1B1 (unknown origin) expressed in Escherichia coli DH5alphaF'Iq coexpressing human NADPH-P450 reductase using E2-d4 as substrate after 10 mins in presence of NADP+
Cytochrome P450 1A1 [18] = biological target: T1, Cytochrome P450 1A1; assay: Inhibition of recombinant human CYP1A1 expressed in Escherichia coli coexpressing human NADPH-cytochrome P450 reductase using 7-ethoxyresorufin as substrate by fluorescence spectrophotometric analysis; assay type: ADME
Homo sapiens [19] = organism: Homo sapiens; assay: Selectivity index, ratio of IC50 for recombinant human CYP1A1 expressed in Escherichia coli coexpressing human NADPH-cytochrome P450 reductase to IC50 for recombinant human CYP1B1 expressed in Escherichia coli coexpressing human NADPH-cytochrome P450 reductase
Cytochrome P450 1B1 [20] = biological target: T2, Cytochrome P450 1B1; assay: Inhibition of recombinant CYP1B1 (unknown origin) expressed in supersomes coexpressing NADPH-CYP reductase using 7-ethoxyresorufin as substrate after 15 mins in presence of NADP+ by Lineweaver-Burk plot analysis
Homo sapiens [21] = organism: Homo sapiens; assay: Selectivity index, ratio of IC50 for human CYP1A1 expressed in Escherichia coli DH5alpha coexpressing human NADPH P450 reductase to IC50 for human CYP1B1 expressed in Escherichia coli DH5alpha coexpressing human NADPH P450 reductase

`C=C(C)[C@@H]1CCC(C)=C[C@H]1c1c(O)cc(CCCCC)cc1O` [CANNABIDIOL] was tested, and the Ki (Cytochrome P450 1A1 [1]) was 150 nM.

With `Oc1ccc(/C=C/c2cc(O)cc(O)c2)cc1` [RESVERATROL] the Ki (Cytochrome P450 1B1 [2]) was 11200 nM and the Ki (Cytochrome P450 1B1 [3]) was 800 nM.

Work on `CNCCC(Oc1ccc(C(F)(F)F)cc1)c1ccccc1` (stereo not drawn) [FLUOXETINE] yielded an IC50 (Cytochrome P450 1B1 [4]) of 475000 nM.

`CC(C)=CCOc1c2ccoc2cc2oc(=O)ccc12` [ISOIMPERATORIN] showed a Ki (Cytochrome P450 1B1 [5]) of 6000 nM.

`N#C[Se]Cc1ccc(C[Se]C#N)cc1` was tested, and the IC50 (Cytochrome P450 1B1 [4]) was 130 to 270 nM, the IC50 (Cytochrome P450 1A1 [6]) was 100 to 450 nM and the IC50 (Cytochrome P450 1A2 [7]) was 200 to 1300 nM.

`COc1ccc2cc3[n+](cc2c1OC)CCc1cc(O)c(O)cc1-3` was tested, and the IC50 (Cytochrome P450 1B1 [8]) was 9900 nM.

For `CC[C@H]1OC(=O)[C@H](C)[C@@H](O[C@H]2C[C@@](C)(OC)[C@@H](O)[C@H](C)O2)[C@H](C)[C@@H](O[C@@H]2O[C@H](C)C[C@H](N(C)C)[C@H]2O)[C@](C)(O)C[C@@H](C)C(=O)[C@H](C)[C@@H](O)[C@]1(C)O` [ERYTHROMYCIN], the IC50 (Cytochrome P450 1B1 [4]) was 40000 nM.

Work on `O=c1c(O)c(-c2ccccc2)oc2ccccc12` [FLAVONOL] yielded an IC50 (Cytochrome P450 1B1 [9]) of 90 nM.

`COc1c2ccoc2c(OC)c2oc(=O)ccc12` [ISOPIMPINELLIN] was tested, and the Ki (Cytochrome P450 1B1 [5]) was 11000 nM.

`CC(C)=CCC/C(C)=C/COc1c2ccoc2cc2oc(=O)ccc12` [BERGAMOTTIN] gave a Ki (Cytochrome P450 1B1 [5]) of 587000 nM.

`C#Cc1cc2ccc3cccc4ccc(c1)c2c34` was tested, and the IC50 (Cytochrome P450 1B1 [10]) was 30 nM and the IC50 (Cytochrome P450 1A1 [11]) was 151 nM.

`Cc1cc(Cl)c2c(c1N)C(=O)c1ccccc1C2=O` showed an IC50 (Cytochrome P450 1A1 [12]) of 400 nM and an IC50 (Cytochrome P450 1A2 [13]) of 530 nM.

In the case of `COc1cc(O)cc(/C=C/c2ccc(O)cc2)c1`, the Ki (Cytochrome P450 1A1 [14]) is reported as 130 nM.

Molecule `O=C1c2ccccc2C(=O)c2c1ccc(O)c2O` [ATHRAQUINONES A] has a Ki (Cytochrome P450 1B1 [15]) of 500 nM.

`COc1cc2c(cc1O)[C@H]1CC[C@]3(C)[C@@H](O)CC[C@H]3[C@@H]1CC2` was tested, and the Ki (Cytochrome P450 1A1 [16]) was 69000 nM and the Ki (Cytochrome P450 1B1 [17]) was 28000 nM.

With `O=C1c2ccccc2C(=O)c2c(O)c(O)cc(O)c21` [PURPURIN] the IC50 (Cytochrome P450 1B1 [15]) was 2200 nM, the Ki (Cytochrome P450 1B1 [15]) was 700 nM and the IC50 (Cytochrome P450 1A1 [18]) was 5500 nM. The Ratio IC50 (Homo sapiens [19]) was 2.5.

Molecule `COc1cccc(/C=C/c2ccc(SC)cc2)c1` has a Ki (Cytochrome P450 1B1 [2]) of 500 nM and a Ki (Cytochrome P450 1B1 [20]) of 30 nM.

Work on `c1cc2ccc3cccc4ccc(c1)c2c34` yielded a Ratio IC50 (Homo sapiens [21]) of 20.5.
